# Measurements as given in ChEMBL document CHEMBL4706720, “Pyrrolidine Compounds as Potential Lipid-Lowering Therapeutic in Cardiovascular Disease” (ACS Med Chem Lett, 2021).
# Assay: Inhibition of lipoprotein(a) assembly from Apo(a) and LDL particle in human HepG2 and HEK293 combined conditioned media incubated for 2 hrs by sandwich ELISA
row,Compound,IC50 [nM]
1,O=C(O)[C@@H](Cc1cccc(CN(Cc2cccc(C[C@H](C(=O)O)[C@H]3CCNC3)c2)Cc2cccc(C[C@H](C(=O)O)[C@H]3CCNC3)c2)c1)[C@H]1CCNC1,0.0963
2,CC(Cc1cccc(CN(Cc2cccc(CC(C)(C(=O)O)[C@H]3CCNC3)c2)Cc2cccc(CC(C)(C(=O)O)[C@H]3CCNC3)c2)c1)(C(=O)O)[C@H]1CCNC1 (some centres not stated),0.108
3,O=C(O)[C@@H](Cc1cccc(CNCc2cccc(C[C@H](C(=O)O)[C@H]3CCNC3)c2)c1)[C@H]1CCNC1,0.934
4,O=C(O)[C@@H](Cc1cccc(Oc2cccc(C[C@H](C(=O)O)[C@H]3CCNC3)c2)c1)[C@H]1CCNC1,0.372
5,O=C(O)[C@@H](Cc1cccc(S(=O)(=O)c2cccc(C[C@H](C(=O)O)[C@H]3CCNC3)c2)c1)[C@H]1CCNC1,0.235
6,O=C(O)[C@@H](Cc1cccc(Sc2cccc(C[C@H](C(=O)O)[C@H]3CCNC3)c2)c1)[C@H]1CCNC1,0.36
7,O=C(O)[C@@H](Cc1cccc([S+]([O-])c2cccc(C[C@H](C(=O)O)[C@H]3CCNC3)c2)c1)[C@H]1CCNC1,0.396
8,O=C(O)[C@@H](Cc1cccc(NS(=O)(=O)Nc2cccc(C[C@H](C(=O)O)[C@H]3CCNC3)c2)c1)[C@H]1CCNC1,0.563
9,O=C(O)[C@@H](Cc1cccc(COc2cccc(C[C@H](C(=O)O)[C@H]3CCNC3)c2)c1)[C@H]1CCNC1,0.359
10,O=C(O)[C@@H](Cc1cccc(OCCOc2cccc(C[C@H](C(=O)O)[C@H]3CCNC3)c2)c1)[C@H]1CCNC1,0.288
11,O=C(O)[C@@H](Cc1cccc(Nc2cccc(C[C@H](C(=O)O)[C@H]3CCNC3)c2)c1)[C@H]1CCNC1,0.348
12,COc1cc(F)cc(CN(Cc2cccc(C[C@H](C(=O)O)[C@H]3CCNC3)c2)Cc2cccc(C[C@H](C(=O)O)[C@H]3CCNC3)c2)c1,0.17
